From PMC2062954, “Microencapsulated octreotide pamoate in advanced gastrointestinal and pancreatic cancer: a phase I study” (British Journal of Cancer, 1998)

Assay: Plasma octreotide levels by RIA
Format: in vivo, human
Procedure: Norway Summary Fourteen patients suffering from advanced colorectal (n = 7), pancreatic (n = 4) or gastric (n = 3) carcinomas received treatment with microencapsulated octreotide pamoate 90 mg i.m. every 4 weeks (n = 4), 160 mg i.m. every 4 weeks (n = 4) or 160 mg i.m. every 2 weeks (n = 6). […] In this study we evaluate the tolerability. clinical effects, pharmacokinetics and effects on plasma IGF-I and -II of a new microencapsulated formulation of octreotide pamoate in patients suffering from gastrointestinal and pancreatic carci- nomas. […] Thus. apart from deter- mining plasma IGF-I and -HI together with IGFBP-1 and -3 with radioimmunoassay (RIA). we measured IGFBPs using Western ligand blotting and the functional status of IGFBP-3 using immunoblotting. […] PATIENTS AND METHODS Patients Fourteen patients (eight men and six A-omen) with progressive locally advanced and/or metastatic adenocarcinomas of abdominal origin were studied (Table 1). Any other svstemic anti-cancer therapy had been terminated at least 4 weeks before inclusion in the study.

Which results are given for `C[C@@H](O)[C@@H]1NC(=O)[C@H](CCCCN)NC(=O)[C@@H](Cc2c[nH]c3ccccc23)NC(=O)[C@H](Cc2ccccc2)NC(=O)[C@@H](NC(=O)[C@H](N)Cc2ccccc2)CSSC[C@@H](C(=O)N[C@H](CO)[C@@H](C)O)NC1=O` [octreotide]?
ratio of peak octreotide level at first day of injection to plasma level just before the next injection (all cohorts, i.m. depot, range, generally two to five times higher, data not shown): 2.2-9.9; lowest plasma level of octreotide observed at any time during treatment (individual patients, all cohorts, RIA): 3.4 ng/mL; highest plasma octreotide level (one patient in cohort 3 (160 mg i.m. every 2 weeks), long-term treatment > 6 months, at day 13, subsequent gradual decline): 98.9 ng/mL
